Key:
[1] = target: mammalian CB1 receptors (Homo sapiens, UniProt P21554); conditions: cited from earlier work
[2] = tested on: MRSA bacteria; assay: MRSA bacterial growth and biofilm formation in broth tubes, crystal violet stain (Example 1, FIG. 2); type: cell-based, Methicillin-resistant Staphylococcus aureus; conditions: about 5000 CFU/mL, 16-20 hours, 2 mL broth, 35±2° C., CP55,940 and LEA at 30 μm; for MRSA biofilm formation: crystal violet, qualitative
Method: (§1) The broth inoculum was prepared from 18-24 hours old colonies grown on standard agar plates. Approximately four of the fresh colonies were swiped with a sterile cotton Q-tip and then suspended in saline by immersion and light swirling. The turbidity was adjusted to equal that of a 0.5 McFarland turbidity standard using a spectrophotometer (600 nm). The amount corresponded to about 1.5×10^8 CFU/mL, where CFU stands for colony-forming units, and is equivalent to an absorbance at 600 nm equal to 0.132 or a percentage transmission equal to 74.3. […] Sterile 4 mL polystyrene tubes (12×75 mm) with caps were used for this purpose.
MRSA bacteria (about 5000 CFU/mL) were allowed to grow for 16-20 hours in 2 mL broth at 35±2° C. in the presence or absence of various experimental compounds or antibiotics. The amount of biofilm was visualized qualitatively after being stained with crystal violet. Biofilm attached to the side of the tube was stained purple. The compounds CP55,940, LEA, and capsaicin were all tested at 30 μm. In the negative control, no compounds were added. The vehicle controls were made up of the appropriate dilution of the different solvent used to dissolve the experimental compounds, including methanol (MeOH), ethanol (EtOH) or dimethylsulfoxide (DMSO). The experimental compounds tested included CP55,940, noladin ether, O-2050, and linoleyl ethanolamide. High concentrations of the antibiotics zeocin and ampicillin served as positive antimicrobial controls. […] The no bacteria group contained only media and no bacteria, and served as another control.

[3] = tested on: gram-positive bacteria, including Streptococcus agalactiae, Enterococcus faecalis, Staphylococcus epidermidis, and prominent MRSA strains; assay: Growth and biofilm formation of gram-positive strains, crystal violet stain quantified at 600 nm (Example 2, FIG. 3); type: cell-based; conditions: 30 μM, overnight, 35±2° C.; for growth of gram-positive bacteria, including MRSA: 2 mL broth; for biofilm formation of gram-positive bacteria, including MRSA: crystal violet stain solubilized, 600 nm
Method: as §1, with “efficacy of the compounds were again tested against different strains of gram-positive bacteria, including Streptococcus agalactiae, Enterococcus faecalis, Staphylococcus epidermidis, and prominent MRSA (hospital-acquired and community-acquired) strains. Broth” for “broth”
The bacteria were allowed to incubate overnight in 2 mL broth at 35±2° C. in the presence or absence of various experimental compounds or antibiotics. The amount of biofilm was visualized qualitatively, then stained with crystal violet. Biofilm attached to the side of the tube was stained purple. After staining, the tubes were decanted and rinsed, leaving stained biofilm adhering to the tubes. Next, the stain was solubilized and mixed with ethanol (EtOH) or dimethylsulfoxide (DMSO). The turbidity of the so lubilized stain, or lack thereof, was then quantified in a spectrophotometer (600 nm). In the broth only sample, no bacteria were added. In the negative controls, no compounds were added. The vehicle controls were made up of the appropriate dilution of the different solvent used to dissolve the experimental compounds, including ethanol (EtOH) or dimethylsulfoxide (DMSO). The experimental compounds tested included 30 μM of CP55,940, 30 μM of O-2050, 30 μM of linoleyl ethanolamide, 30 μM of no ladin ether, and 30 μM of anandamide (natural product 2). High concentrations of silver nitrate (1000 μM) and vancomycin (50 μg/mL) served as positive antimicrobial controls.

[4] = target: mammalian CB2 receptors (Homo sapiens, UniProt P34972); conditions: cited from earlier work
mammalian CB2 receptors, sequence (P34972 whole entry): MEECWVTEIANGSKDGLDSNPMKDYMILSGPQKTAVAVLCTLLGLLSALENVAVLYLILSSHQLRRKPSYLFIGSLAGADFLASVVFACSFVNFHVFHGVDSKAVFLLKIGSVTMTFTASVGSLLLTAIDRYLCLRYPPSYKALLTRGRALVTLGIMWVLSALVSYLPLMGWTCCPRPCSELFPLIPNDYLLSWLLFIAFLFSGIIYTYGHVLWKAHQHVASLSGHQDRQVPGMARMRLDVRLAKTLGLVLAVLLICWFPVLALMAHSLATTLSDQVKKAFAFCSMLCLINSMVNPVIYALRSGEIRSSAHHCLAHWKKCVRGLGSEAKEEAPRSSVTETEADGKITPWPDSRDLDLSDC

mammalian CB1 receptors, sequence (P21554 whole entry): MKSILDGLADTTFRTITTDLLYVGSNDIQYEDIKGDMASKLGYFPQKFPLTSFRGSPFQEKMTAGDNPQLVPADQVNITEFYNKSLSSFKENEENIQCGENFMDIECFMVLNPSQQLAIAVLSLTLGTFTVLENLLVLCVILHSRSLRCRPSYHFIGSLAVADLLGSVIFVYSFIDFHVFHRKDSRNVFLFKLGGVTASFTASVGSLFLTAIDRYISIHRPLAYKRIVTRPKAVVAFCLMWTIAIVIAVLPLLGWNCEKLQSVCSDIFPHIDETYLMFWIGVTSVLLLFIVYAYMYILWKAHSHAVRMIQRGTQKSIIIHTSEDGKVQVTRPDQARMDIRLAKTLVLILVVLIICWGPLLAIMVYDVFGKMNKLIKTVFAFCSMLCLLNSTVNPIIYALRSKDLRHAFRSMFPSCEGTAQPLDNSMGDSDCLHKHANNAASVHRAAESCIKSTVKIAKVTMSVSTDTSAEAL

| Structure (SMILES) | affinity for CB1 receptor [1] | MRSA growth [2] | MRSA biofilm formation [2] | growth of gram-positive bacteria, including MRSA [3] | biofilm formation of gram-positive bacteria, including MRSA [3] | affinity for CB2 receptor [4] |
| --- | --- | --- | --- | --- | --- | --- |
| CCCCC/C=C\C/C=C\CCCCCCCC(=O)NCCO [LEA, N-(2-hydroxyethyl)-9Z,12Z-octadecadienamide] | poor affinity | prevent | prevent | prevent | prevent | poor affinity |
| CC1=CC[C@@H]2[C@@H](C1)c1c(O)cc(CC#CCCCNS(C)(=O)=O)cc1OC2(C)C [Compound O-2050] |  | prevent | prevent | prevent | prevent |  |
| CCCCC/C=C\C/C=C\C/C=C\C/C=C\CCCCOC(CO)CO [noladin ether, 2-[(5Z,8Z,11Z,14Z)-eicosatetraenyloxy]-1,3-propanediol] |  | prevent | prevent |  |  |  |
| CCCCCCC(C)(C)c1ccc([C@@H]2C[C@H](O)CC[C@H]2CCCO)c(O)c1 [CP55,940, (−)-cis-3-[2-Hydroxy-4-(1,1-dimethylheptyl)phenyl]-tran s-4-(3-hydroxypropyl)cyclohexanol] | high affinity | prevent | prevent | prevent | prevent | high affinity |
| CN[C@H]1C[C@@H](N)[C@H](O)[C@@H](O[C@@H]2O[C@H](CO)[C@H](O)[C@@H]3OC4(O[C@H]23)O[C@H]([C@@H](N)CO)[C@H](O)[C@H](O)[C@H]4O)[C@@H]1O (stereo partly shown) [Hydromycin B, reference compound] |  | Relatively ineffective |  |  |  |  |

Reference: patent US20110301078A1, “PREVENTION OF BACTERIAL GROWTH AND BIOFILM FORMATION BY LIGANDS THAT ACT ON CANNABINOIDERGIC SYSTEMS” (priority 2008, published 2011)
